In patent publication US12544354B2 (RIKEN, priority 2019, dated 2026):

Columns and labels:
[1] = test system: mitochondrial permeability transition pore (mPTP); assay: mPTP-opening inhibitory activity test (calcium retention capacity, CRC) in mitochondria isolated from mouse brain; type: biochemical; conditions: for mPTP-Opening inhibitory activity at 1.0 μM compound concentration CRC/CRC (DMSO): mitochondria from C57B6J mouse brain, ratio of calcium required for mPTP-opening with compound vs DMSO control
Experimental: In this test, inhibitory effects of mPTP in mitochondria isolated from the brain were evaluated.
The mPTP-opening inhibitory activity and efficacy of test compounds are determined by evaluating inhibitory potency thereof against opening of mPTP formed of inner and outer mitochondrial membranes, by in-vitro assay described later.
The animal was humanely euthanized by cervical dislocation, and the brain was excised out. The brain excised out was put in an isolation buffer (280 mM sucrose, 10 mM 3-morpholinopropanesulfonic acid (MOPS), 1 mM ethylenediamine tetraacetic acid dipotassium salt (EDTA-2K), pH 7.2) cooled in ice. The brain was rinsed with the buffer cooled in ice and cut by scissors in the buffer put in a beaker placed on ice. The cut pieces were transferred to a Dounce glass homogenizer. The buffer was exchanged with an isolation buffer containing 12% Percoll, and the cut pieces were homogenized. The cut pieces were homogenized four times by use of a loose pestle and 8 times by use of a tight pestle while vertically rotating. The homogenate was gently overlaid on the layer formed of two portions different in density of Percoll (26%, 40%) in 50 ml-centrifuge tubes, which were then spun by a centrifuge (HITACHI CR22N, rotor R20A2) maintained at 4° C. at 30700×g for 5 minutes. The intermediate layer between the 26% layer and the 40% layer was carefully sucked by use of a 23 G needle, added in an isolation buffer (24 ml) previously cooled in ice, and spun by a centrifuge at 16700×g to allow mitochondria to precipitate as a pellet. The supernatant was gently discarded and the mitochondria was suspended. The amount of the mitochondrial suspension was measured and an aliquot of 20 μl was taken for determining protein concentration. To the mitochondrial suspension, 10 mg/ml BSA ([…]) was added and further an isolation buffer was added up to a volume of 1.2 ml (final concentration 1 mg/mL). The suspension was transferred to 2.0 ml tubes and then centrifuged. The supernatant was discarded and mitochondrial pellets were obtained and stored in ice. The protein amount of mitochondria was measured in accordance with the Bradford method.
To mitochondrial pellets isolated, a measurement buffer (210 mM sucrose, 20 mM potassium chloride, 3 mM glycylglycine and 1 mM potassium dihydrogen phosphate) containing a fluorescent calcium indicator, calcium green-5N (200 nM), was added to as to obtain a concentration of 150 μg/ml. In this manner, a mitochondrial suspension was prepared. Calcium green, which binds to calcium and emits fluorescence, is used as a probe for quantification. When calcium green is added to a mitochondrial suspension, the presence of calcium in the external fluid thereof can be detected. The mitochondrial suspension prepared by suspending mitochondria with the measurement buffer containing 400 nM calcium green was added in wells of a 96 well plate. To predetermined wells, a measurement buffer containing 40 mM glutamic acid, 4 mM malic acid and a double-concentration of test compound was added to prepare a mitochondrial suspension of 100 μl/well (final concentration: 20 mM glutamic acid, 2 mM malic acid). To the mitochondrial suspension in the wells of the 96 well plate, calcium was continuously added dropwise (10 μl of 117 μM CaCl2) was added in a rate of 100 μl/well, final concentration 11.7 μM), and the fluorescence value reflecting the amount of extramitochondrial calcium was determined ([…]). The measurement was carried out by a functional drug screening system, FDSS3000 (Hamamatsu Photonics K. K.). Incubation at 30° C. and shaking of the well plate were carried out by devices equipped in the system. Calcium (CaCl2)) was added at intervals of one minute in accordance with the program of FDSS3000 software.

PC12 cells = assay: Cell death inhibitory activity test: glutamic acid-induced cell death of PC12 cells (MTS assay); type: cell-based, rat; conditions: test compound 1, 3, 10 or 30 μM, added 24 h before glutamic acid; cell viability by MTS 48 h later
From the text: Simultaneously when mitochondria take up calcium, the membrane potential dissipates and mPTP opens. Physiologically, hydrogen peroxide generates in the mitochondrial respiratory chain with opening of mPTP and may further produce a damage to not only mitochondria but also cells. […] Oxidative stress ascribed to hydrogen peroxide may cause cell damage downstream of Ca uptake. In the test, the relationship between mPTP-opening inhibitory effect on cells and cell death was studied by using rat adrenal pheochromocytoma-derived PC12 cells.
The PC12 cells used in the test are derived from rat adrenal pheochromocytoma but are differentiated into sympathetic neurons by a nerve growth factor, and known to cause cell death in a glutamic acid concentration dependent manner (Pereira C F, Oliveira, R, Neuroscience Research, vol. 37(3), p. 227-236, 2000, Oxidative glutamate toxicity involves mitochondrial dysfunction and perturbation of intracellular Ca^2+ homeostasis).
A growth medium (composition: Dulbecco modified MEM culture medium (Gibco 11885-084) containing 100 units of penicillin, 100 μg/mL streptomycin (Gibco 15-140-122), 2.5% inactivated fetal bovine serum (Gibco 10437-028) and 2.5% inactivated horse serum (Gibco 16050-130)) were prepared. PC12 cells were cultured in a culture dish (diameter: 100 mm, Corning 353003) containing 10 ml of the growth medium. PC12 cells cryopreserved were thawed, cultured in the growth medium for at least one week and used in the test. PC12 cells were removed with 0.25% trypsin-1 mM EDTA and subcultured. The following experiments were all carried out at 37° C. by a CO2 incubator in an atmosphere containing 5% CO2. […]
After addition of MTS for CellTiter 96 ® AQueous One Solution Cell Proliferation Assay (Promega G3580)), the microplate was placed in a CO2 incubator and incubation was carried out for 4 hours. Absorbance of individual wells at a wavelength of 490 nm was measured by a spectrophotometer (SpectraMax i3 manufactured by Molecular Devices) with 700 nm used as a reference wavelength. A cell viability was calculated in accordance with the following expression (1) based on the absorbance obtained. Note that, to reduce background non-specific absorption due to excessive cell residue, culture medium and others, the obtained absorbance data were corrected based on the absorbance at a reference wavelength of 700 nm. […] Cell viability (%)=[(Abs−Abm)/(Abc−Abm)]×100 Expression (1) • Abs: Absorbance of sample (well containing cells, glutamic acid-added medium and MTS solution) • Abc: Absorbance of negative control (well containing cells, control medium and MTS solution) • Abm: Absorbance of blank (well containing control medium and MTS solution) (Suppression of Cell Death in the Presence of Test Compound) […]

[2] = test system: local cerebral ischemia mouse model (pMCA-O); assay: Suppression test for cell death caused by cerebral ischemia: local cerebral ischemia mouse model by permanent middle cerebral artery occlusion (pMCA-O); conditions: mice, 100 mg/kg intraperitoneal
Experimental: In the test, to evaluate the action of test compounds to protect cells from cell death in vivo, a local cerebral ischemia mouse model was prepared by permanent middle cerebral artery occlusion (pMCA-O) and actions of test compounds to protect the cells at a brain injury site one day after occlusion were examined. Note that, for preparing a permanent middle cerebral artery occlusion model, C57BL/6JJmsSlc was used.
As the solvent, dimethyl sulfoxide (DMSO: FUJIFILM Wako Pure Chemical Corporation), polyethylene glycol (PEG400: FUJIFILM Wako Pure Chemical Corporation) and phosphate buffered saline (PBS: FUJIFILM Wako Pure Chemical Corporation) were used. The final concentrations of DMSO, PEG400 and PBS were set to be 15%, 50% and 35%, respectively. […]
One day after cerebral ischemia, the head of each of the mice was removed under anesthesia with 2% isoflurane and the whole brain was carefully excised out. […] These brain sections were stained in physiological saline containing 10 mL of 2% 2,3,5-triphenyl tetrazolium chloride (TTC) (manufactured by Hayashi Pure Chemical Ind., Ltd.) for 30 minutes (Bederson, J B et al., Stroke, 1986, vol. 17, p. 1304-1308, Evaluation of 2,3,5-triphenyltetrazolium chloride as a stain for detection and quantification of experiment a cerebral Infarction in rats). […]
The size of a brain injury site was determined as follows.

Structure (SMILES) | mPTP-Opening inhibitory activity at 1.0 μM compound concentration CRC/CRC (DMSO) [1] | protection of PC12 cells from cell death induced by glutamic acid (FIG. 4) (PC12 cells) | also measured
C[C@@]12OC(=O)[C@@H](C(=O)c3c(O)cccc31)[C@@H]2CC1=C(O)C(=O)C(C(N)=O)=C(O)C1=O [Compound I-1, 2,5-dihydroxy-4-(((1S,4R,10S)-6-hydroxy-1-methyl-3,5-dioxo-1,3,4,5-tetrahydro-1,4-methanobenzo[c]oxepin-10-yl)methyl)-3,6-dioxocyclohexa-1,4-dienocarboxamide] | 2.96 | protected PC12 cells, to no small extent | concentration needed to inhibit mPTP-opening compared with cyclosporine A (FIG. 2) ([1]; dose response of CRC/CRC(DMSO), FIG. 2): at a lower concentration than cyclosporine A; deaths of animals during the test period [2]: not seen; average brain injury rate, lower than the control group ([2]; one day after cerebral ischemia, total brain injury rate P<0.05, cerebral cortex injury rate P<0.01): about 25%
C[C@@]12OC(=O)[C@@H](C(=O)c3c(O)cccc31)[C@@H]2Cc1c(O)c(O)c(C(N)=O)c(O)c1O [Compound I-2, 2,3,5,6-tetrahydroxy-4-(((1S,4R,10S)-6-hydroxy-1-methyl-3,5-dioxo-1,3,4,5-tetrahydro-1,4-methanobenzo[c]oxepin-10-yl)methyl)benzamide] | 2.92 |  | 
CN(C)c1ccc(O)c2c1C[C@@H](CC1=C(O)C(=O)C(C(N)=O)=C(O)C1=O)CC2=O [Compound I-3, (S)-4-((8-(dimethylamino)-5-hydroxy-4-oxo-1,2,3,4-tetrahydronaphthalen-2-yl)methyl)-2,5-dihydroxy-3,6-dioxocyclohexa-1,4-dienecarboxamide] | 1.22 |  | 
CC(=O)Oc1cccc2c1C(=O)[C@@H]1C(=O)O[C@@]2(C)[C@H]1Cc1c(OC(C)=O)c(OC(C)=O)c(C(N)=O)c(OC(C)=O)c1OC(C)=O [Compound I-4, 3-(((1S,4R,10S)-6-acetoxy-1-methyl-3,5-dioxo-1,3,4,5-tetrahydro-1,4-methanobenzo[c]oxepin-10-yl)methyl)-6-carbamoyl benzene-1,2,4,5-tetraryl tetraacetate] |  | stronger protective actions | 
CC(C)(C)C(=O)Oc1cccc2c1C(=O)[C@@H]1C(=O)O[C@@]2(C)[C@H]1Cc1c(OC(=O)C(C)(C)C)c(OC(=O)C(C)(C)C)c(C#N)c(OC(=O)C(C)(C)C)c1OC(=O)C(C)(C)C [Compound I-5] |  | stronger protective actions | 
C[C@@]12OC(=O)[C@@H](C(=O)c3c(OC(=O)c4ccccc4)cccc31)[C@@H]2Cc1c(OC(=O)c2ccccc2)c(OC(=O)c2ccccc2)c(C(N)=O)c(OC(=O)c2ccccc2)c1OC(=O)c1ccccc1 [Compound I-6, 3-(((1S,4R,10S)-6-(benzoyloxy)-1-methyl-3,5-dioxo-1,3,4,5-tetrahydro-1,4-methanobenzo[c]oxepin-10-yl)methyl)-6-carbamoyl benzene-1,2,4,5-tetraryl tetrabenzoate)] |  | stronger protective actions | 
C[C@@]12OC(=O)[C@@H](C(=O)c3c(O)ccc(Cl)c31)[C@@H]2CC1=C(O)C(=O)C(C(N)=O)=C(O)C1=O [Compound Ia-1, 4-(((1S,4R,10S)-9-chloro-6-hydroxy-1-methyl-3,5-dioxo-1,3,4,5-tetrahydro-1,4-methanobenzo[c]oxepin-10-yl)methyl)-2,5-dihydro-3,6-dioxohexa-1,4-dienecarboxamide] | 1.66 |  | 
C[C@@]12OC(=O)[C@@H](C(=O)c3c(O)ccc(Cl)c31)[C@@H]2Cc1c(O)c(O)c(C(N)=O)c(O)c1O [Compound Ia-2, 4-(((1S,4R,10S)-9-chloro-6-hydroxy-1-methyl-3,5-dioxo-1,3,4,5-tetrahydro-1,4-methanobenzo[c]oxepin-10-yl)methyl)-2,3,5,6-tetrahydroxybenzamide] | 1.50 |  | 
C[C@@H]1c2cccc(O)c2C(=O)C[C@@H]1CC1=C(O)C(=O)C(C(N)=O)=C(O)C1=O [Compound Ia-3, 2,5-dihydroxy-4-(((1S,2S)-5-hydroxy-1-methyl-4-oxo-1,2,3,4-tetrahydronaphthalen-2-yl)methyl)-3,6-dioxocyclohexa-1,4-dienecarboxamide] | 3.00 |  | 
C[C@@]12OC(=O)[C@@H](C(=O)c3c(O)cccc31)[C@@H]2CC1=C(O)C(=O)C(C#N)=C(O)C1=O [Compound Ia-4, 2,5-dihydroxy-4-(((1S,4R,10S)-6-hydroxy-1-methyl-3,5-dioxo-1,3,4,5-tetrahydro-1,4-methanobenzo[c]oxepin-10-yl)methyl)-3,6-dioxocyclohexa-1,4-dienocarbonitrile] | 1.59 |  | 
